Data reported in patent publication US20250339567A1, “COMPOUNDS WITH IMPROVED PHARMACOKINETICS FOR IMAGING AND THERAPY OF CANCER” (priority 2019, published 2025).
Read-outs that look alike come from different tables or passages of the source.

Assays:
[1] = n-Octanol-PBS distribution coefficient, log D7.4; type: physicochemical; conditions: 177Lu-labeled ligand; n-octanol/PBS pH 7.4
Protocol: Approximately 1 MBq of the labeled tracer was dissolved in 1 mL of a 1:1 mixture (v/v) of phosphate buffered saline (PBS, pH=7.4) and n-octanol in an Eppendorf tube. After vigorous mixing of the suspension for 3 min at room temperature, the vial was centrifuged at 9000 rpm for 5 min (Biofuge 15, Heraus Sepatech, Osterode, Germany) and 200 μL aliquots of both layers were measured in a γ-counter. The experiment was repeated at least four times.

[2] = tested on: PC-3 tumor-bearing CB17-SCID mice; conditions: mouse, in vivo
Protocol: (§1) All animal experiments were conducted in accordance with general animal welfare regulations in Germany (German animal protection act, as amended on 18 May 2018, Art. 141 G v. 29.3.2017 | 626, approval no. ROB-55.2-2532.Vet_02-18-109) and the institutional guidelines for the care and use of animals. To establish tumor xenografts, PC-3 cells (5×10^6 cells per 200 μL) were suspended in a 1:1 mixture (v/v) of Dulbecco's modified eagle's medium/Ham's F-12 (DMEM/F-12) with Glutamax-I (1:1) and Cultrex® Basement Membrane Matrix Type 3 (Trevigen Inc., Gaithersburg, MD, USA) and inoculated subcutaneously onto the right shoulder of 6-10 weeks old female CB17-SCID mice (Charles River Laboratories International Inc., Sulzfeld, Germany). Mice were used for experiments when tumor volume was 125-500 mm^3 (2-3 weeks after inoculation).
Imaging studies were performed at a MILabs VECTor^4 small-animal SPECT/PET/OI/CT device (MILabs, Utrecht, the Netherlands). Data were reconstructed using the MILabs Rec software (version 10.02) and a pixel-based Similarity-Regulated Ordered Subsets Expectation Maximization (SROSEM) algorithm, followed by data analysis using the PMOD4.0 software (PMOD TECHNOLOGIES LLC, Zurich, Switzerland). […] Static images were recorded within 1 and 28 h p.i. with an acquisition time of 45-60 min using the HE-GP-RM collimator and a step-wise multi-planar bed movement.

[3] = Plasma studies: metabolic stability in vitro in human plasma (radio RP-HPLC); type: in vitro ADME
Procedure, shortened: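 Radiotracer incubated in human or murine plasma at 37° C. immediately after labeling, for 72±2 h or 6±0.5 h. Proteins precipitated with ice-cold EtOH and MeCN and centrifuged. Supernatant analysed by radio RP-HPLC.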

GRPR = biological target: T1, GRPR (Homo sapiens, UniProt P30550); test: Determination of GRPR affinity (IC50), competition with [D-3-[125I]I-Tyr6]MJ9 on PC-3 cells; type: binding
T1 construct: endogenous in cells; host or cells: PC-3 cells
T1 sequence (P30550 whole entry): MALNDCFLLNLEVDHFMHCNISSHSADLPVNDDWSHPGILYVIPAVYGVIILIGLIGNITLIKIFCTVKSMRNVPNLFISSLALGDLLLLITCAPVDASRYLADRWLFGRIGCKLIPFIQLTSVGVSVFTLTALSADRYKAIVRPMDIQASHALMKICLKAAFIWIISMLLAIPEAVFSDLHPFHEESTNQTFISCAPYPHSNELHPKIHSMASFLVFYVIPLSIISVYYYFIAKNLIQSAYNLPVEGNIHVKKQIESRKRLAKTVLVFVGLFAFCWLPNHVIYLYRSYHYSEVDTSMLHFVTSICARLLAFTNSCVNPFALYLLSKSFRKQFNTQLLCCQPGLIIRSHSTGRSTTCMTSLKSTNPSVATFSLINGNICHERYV
Protocol: The reference ligand for IC50 studies ([D-3-[^125I]I-Tyr^6]MJ9) is prepared according to a previously published procedure. Briefly, 0.2 mg of [D-Tyr^6]MJ9 are dissolved in 20 μL Tracepur water and 280 μL TRIS buffer (25 mm TRIS HCl, 0.4 M NaCl, pH=7.9). After addition of the solution to a vial containing 150 μg Iodo-Gen® (1,3,4,6-Tetrachloro-3α,6α-diphenylglycouril, surface-bound), 5.0 μL (16 MBq) [^125I]Nal(74 TBq/mmol, 3.1 GBq/mL, 40 mM NaOH, Hartmann Analytic, Braunschweig, Germany) are added.
The GRPR-positive PC-3 cells are cultured in Dublecco modified Eagle medium/Nutrition Mixture F-12 with Glutamax-I (1:1) (Invitrigon), supplemented with 10% fetal calf serum and maintained at 37° C. in a humidified 5% CO2 atmosphere.
After removal of the culture medium, the cells are washed once with 500 μL of HBSS (Hank's balanced salt solution, Biochrom, Berlin, Germany, with addition of 1% bovine serum albumin (BSA)) and left in 200 μL HBSS (1% BSA) for 9 min at room temperature for equilibration. Next, 25 μL per well of solutions, containing either HBSS (1% BSA) as control or the respective ligand in increasing concentration (10^−10 M-10^−4 M in HBSS), are added with subsequent addition of 25 μL of [D-3-[^125I]I-Tyr^6]MJ9 (2.0 nM) in HBSS (1% BSA).
All experiments are performed in triplicate for each concentration. After 2 h incubation at room temperature, the experiment is terminated by removal of the medium and consecutive rinsing with 300 μL of HBSS. The media of both steps are combined in one fraction and represent the amount of free radiolabeled reference. Afterwards, the cells are lysed with 300 μL of 1 M NaOH for at least 15 min and united with the 300 μL NaOH of the following washing step. Quantification of bound and free radiolabeled reference is accomplished in a γ-counter.
IC50 determination for each ligand was repeated twice.

PC-3 cells = test: Internalization into PC-3 cells; type: cell-based; conditions: c = 1 nM, 1 h, 37° C., corrected for non-specific binding (10^-3 M [natLu]RM2)
Protocol: For internalization studies, PC-3 cells are harvested 24±2 h before the experiment and seeded in 24-well plates (1.5×10^5 cells/well, 1 mL). Subsequent to the removal of the culture medium, the cells are washed once with 500 μL DMEM/F-12 (5% BSA) and left to equilibrate at 37° C. for at least 15 min in 200 μL DMEM/F-12 (5% BSA). […] Next, 25 μL of the ^125I/^177Lu-labeled GRPR ligand (10 nm) is added and the cells are incubated at 37° C. for 60 min.
The experiment is terminated by placing the 24-well plate on ice for 1 min and consecutive removal of the medium. Each well is rinsed with 300 μL ice-cold PBS and the fractions from these first two steps are combined, representing the amount of free radiolabeled reference. Removal of surface bound activity is accomplished by incubation of the cells with 300 μL of ice-cold Acid Wash solution (0.02 M NaOAc, pH=5.0) for 10 min at room temperature and rinsed again with 300 μL of ice-cold PBS. The internalized activity is determined by incubation of the cells in […] NaOH (1 M) and the combination with the fraction of a subsequent washing step with 300 μL NaOH (1 M).
Each experiment (control and blockade) is performed sixfold. Free, surface bound and internalized activity is quantified in a γ-counter. Data is corrected for non-specific internalization.

[4] = tested on: PC-3 tumor-bearing CB17-SCID mice; test: Biodistribution in PC-3 tumor-bearing CB17-SCID mice; type: in vivo; conditions: 177Lu-labeled, 24 h p.i.
Protocol: as §1
Approximately 1-5 MBq ([…]) of the radiolabeled GRPR antagonists were injected into the tail vein of PC-3 tumor-bearing mice and sacrificed at 1, 4 or 24 h p.i. (n=4). Selected organs were removed, weighted and measured in a γ-counter (Perkin Elmer, Waltham, MA, USA).

| clearance of background activity in imaging [2] | Amount of intact tracer after incubation in human plasma for 72 ± 2 h (n = 2) [3] | metabolite, first-eluting peak in chromatogram [3] [%] | metabolite, second peak in chromatogram [3] [%] | remaining intact tracer in chromatogram ([3]; human, plasma, 2 h) [%] | SMILES | log D7.4 ± SD (n = 8) [1] | Amount of intact tracer after incubation in human plasma for 72 ± 2 h (n = 2) ([3]; Table 1C, 177Lu-labeled, 37° C., 72 ± 2 h, in % (unit assumed)) | amount of intact tracer (in vitro stability), mean ± SD ([3]; human plasma, 37° C., 72±2 h) [%] | IC50 (GRPR; IC50 [nM] ± SD (n = 3), ^177Lu-labeled, Table 1C, GRPR affinity) [nM] | IC50 (GRPR; IC50 ± SD (n = 3), Table 3, [D-3-[125I]I-Tyr6]MJ9 (c = 0.2 nM), 2 h, r.t., HBSS + 1% BSA) [nM] | Specific internalization (mean ± SD, n = 6) (PC-3 cells) | pancreas retention ([4]; 100 pmol, FIG. 11) | tumor retention ([4]; 100 pmol, FIGS. 11, 18) | tumor-to-background ratios (tumor-to-blood, tumor-to-muscle) ([4]; FIG. 12) |
| --- | --- | --- | --- | --- | --- | --- | --- | --- | --- | --- | --- | --- | --- | --- |
| cleared less rapid | 77.6 ± 10.1 | 2 | 5 | 92 | CC(C)C[C@H](NC(=O)C[C@H](O)[C@H](CC(C)C)NC(=O)[C@H](Cc1c[nH]cn1)NC(=O)CNC(=O)[C@@H](NC(=O)[C@H](C)NC(=O)[C@](C)(Cc1c[nH]c2ccccc12)NC(=O)[C@H](CCC(N)=O)NC(=O)[C@@H](Cc1ccccc1)NC(=O)CN1CCC(NC(=O)CN2CCN(CC(=O)O)CCN(CC(=O)O)CCN(CC(=O)O)CC2)CC1)C(C)C)C(N)=O [AMTG] | −2.28 ± 0.06 | – | – | – | – | – | – | – | – |
| – | – | – | – | – | CC(C)CC(CC(C)C)NC(=O)[C@H](Cc1cnc[nH]1)NC(=O)CNC(=O)[C@@H](NC(=O)[C@H](C)NC(=O)[C@H](Cc1c[nH]c2ccccc12)NC(=O)[C@H](CCC(N)=O)NC(=O)[C@@H](Cc1ccccc1)NC(=O)COCC(=O)Nc1ccc(CNC(=O)CN2CCN(CC(=O)O)CCN(CC(=O)O)CCN(CC(=O)O)CC2)cc1)C(C)C [NeoBOMB1, reference compound] | −0.57 ± 0.03 | 60.8 ± 1.2 | 60.8±1.2 | 4.2 ± 0.1 | 4.22 ± 0.14 | 13.91 ± 0.64 % of the used activity | high pancreas retention | high tumor retention | minor tumor-to-background ratios than the reference |
